From US9498483B2, “2,3,5-trisubstituted thiophene compounds and uses thereof” (priority 2010, dated 2016)

What was measured:
[1] = system: HCV replicon I389luc-ubi-neo/NS3-3′/ET in ET (Huh-lucubineo-ET) cells; assay: Replicon assay (Biological Example 2), luciferase readout; format: cell-based; conditions: Hepatitis C virus; ET cells, luciferase activity 48 hours after compound
Outline: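 EC50 values come from Hill fits of % inhibition of replicon-driven firefly luciferase, relative to no-compound wells. Compounds were serially diluted (10 points, 3-fold, 0.1 nM–50 μM final, 0.5% DMSO) onto ET replicon cells and read after 48 h.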

HCV polymerase = target: T1, HCV polymerase (Hepatitis C virus genotype 1b, UniProt Q9WMX2); assay: Polymerase assay of Biological Example 1 (IC50 values of Table 3); format: biochemical; conditions: IC50 values of Table 3, polymerase assay of Biological Example 1; read-out: NS5B-enzyme3
T1 construct: (His)6 (C); made in house; host or cells: XL-1 cells (E. coli, by own knowledge)

SMILES	IC50 [1]	IC50 (HCV polymerase)
CC(C)(C)C#Cc1cc(N2C(=O)C(CCCO)CC[C@H]2C2CCCCC2)c(C(=O)O)s1 (stereo partly drawn) [Compound 339, 3-[(S)-6-Cyclohexyl-3-(3-hydroxy-propyl)-2-oxo-piperidin-1-yl]-5-(3,3-dimethyl-but-1-ynyl)-thiophene-2-carboxylic acid]	≤ 100 nM	8 nM
CC(C)(C)C#Cc1cc(N2C(=O)C(N)CC[C@H]2C2CCCCC2)c(C(=O)O)s1 (stereo partly drawn) [Compound 340, 3-((S)-3-Amino-6-cyclohexyl-2-oxo-piperidin-1-yl)-5-(3,3-dimethyl-but-1-ynyl)-thiophene-2-carboxylic acid]	≤ 100 nM	8 nM
CC(C)(C)C#Cc1cc(N2C(=O)C(CCO)CC[C@H]2C2CCCCC2)c(C(=O)O)s1 (stereo partly drawn) [Compound 342, 3-[(S)-6-Cyclohexyl-3-(2-hydroxy-ethyl)-2-oxo-piperidin-1-yl]-5-(3,3-dimethyl-but-1-ynyl)-thiophene-2-carboxylic acid]	≤ 100 nM	18 nM
